Source: patent US20020165216A1, “Cobalt-porphyrin complexes and use thereof as an anti-obesity agent” (MitoKor, priority 2000, published 2002)
Entries after “also recorded” stand apart in the source; their conditions may differ.

How the values were obtained:
[1] = test system: SH-SY5Y neuroblastoma cells; assay: Cellular assay for generation of reactive oxygen species (ROS); format: cell-based; conditions: 30 minutes with test compound
Protocol: All cell culture reagents were incubated in a water bath at 37° C. for approximately 30 minutes. Existing media from a near confluent tissue culture flask containing SH-SY5Y neuroblastoma cells was aspirated using a flame sterilized glass transfer pipette attached to a trapped vacuum apparatus. Calcium free PBS buffer was pipetted into the tissue culture flask (2 ml for a 75 cm2 flask, 3 ml for a 175 cm^2 flask). The flask was tipped slightly to ensure that the buffer covers the cell culture and then the buffer was removed by aspiration. Trypsin media was pipetted into the tissue culture flask (2 ml for a 75 cm^2 flask, 3 ml for a 175 cm^2 flask) and evenly spread to ensure that the trypsin covered the cell culture. The cell culture was incubated with trypsin media for 4-6 minutes at room temperature. After cells were released from the flask, the flask was tilted to one corner. Using the existing media within the flask, the aggregated cells were collected towards one corner and repeatedly pipetted to obtain a single cell suspension. The cell suspension was transferred with a pipette into a 15 ml conical shaped centrifuge tube then cell culture media was added to the suspension up to a total volume of 14 ml. Ten μl aliquots were withdrawn and the cells were counted using a hemocytometer. The suspension was centrifuged at 200×g for 10 minutes, the supernatant was aspirated off, and the cell pellet was resuspended at 3.75×10^5 cells/ml in cell culture medium. Two hundred μl of cell suspension were aliquoted per well in the 96 well dish to obtain a final cell number of 75,000 cells per well. The plates were incubated overnight at 37° C. and 5% CO2 in a humidified cell incubator.
The medium was carefully removed from the wells by aspiration with an 18 g needle. The wells were gently rinsed once with 200 μl of warm Hanks balanced saline solution (HBSS, Gibco-BRL). […]
Stock solutions of test compound, such as Co-PP, Co-MP, or a Co-P of this invention, and of an H2O2 scavenger such as ebselen, were typically prepared in dimethylformamide or dimethylsulfoxide and diluted further into working concentrations using HBSS. […] The plate was read immediately in Cytofluor model 2350 system (Millipore; excitation wavelength: 485 nm; emission wavelength: 530 nm) for a 0 min timepoint reading. The cells were incubated for 30 minutes at room temperature with test compound following which a 30 min reading was taken. The change in RMF over the 30 minutes period was calculated for each well. […] The plate was then read in the Cytofluor (excitation wavelength: 360 nm; emission wavelength: 460 nm) and the Hoechst fluorescence values were used to normalize the DCFC-DA RMF data.

[2] = Lesion severity assay (nuchal injection site); format: in vivo, Male Sprague Dawley rats; conditions: scale 0 no lesions to 5 worst lesions; 12 mM, 400 μl per 100 grams body weight, subcutaneous, nuchal area, 8 days
Protocol: Male Sprague Dawley rats (approximately 200 g) were purchased from Charles River Canada, Inc. and were shipped to the Animal Care Facility at the University of Vermont. Upon arrival they were housed in separate cages with corncob bedding and ad lib access to tap water and purina rat chow. The animal facility is maintained at a temperature of 71° F. +/− 1° F. with a 12-hour light/dark cycle, lights on at 6:00 am and off at 6:00 pm. Two days later (Day-3) all rats were shaved in the nuchal area and baseline color photographs of the nuchal area were taken (light halothane anesthesia was utilized to facilitate the shaving). Three days later (Day 0) experimental compounds were made up at 12 mM concentrations in vehicle (i.e., saline:PEG400:EtOH (5:4:1), pH 7.4). Animals were injected subcutaneously in the nuchal area with the various stock solutions at a dose of 400 μl per 100 grams body weight. Typical injection volumes, therefore, range from 1 to 1.5 ml per animal. Animals were injected using a modified Z-track technique to try and minimize outflow of injected compounds due to the high volume utilized. Each animal was weighed prior to injection and all injections were accomplished in an approximately two-hour period. […]
Means of body weights for each group were calculated and plotted over time (FIG. 9A), as were numerical means of the lesion severity index (FIG. 9B). […]

[3] = rat, in vivo; cited from earlier work
[4] = Weight loss assay; format: in vivo, Male Sprague Dawley rats; conditions: 12 mM in vehicle, 400 μl per 100 grams body weight, subcutaneous, nuchal area, 8 days
Protocol: Male Sprague Dawley rats (approximately 200 g) were purchased from Charles River Canada, Inc. and were shipped to the Animal Care Facility at the University of Vermont. Upon arrival they were housed in separate cages with corncob bedding and ad lib access to tap water and purina rat chow. The animal facility is maintained at a temperature of 71° F. +/− 1° F. with a 12-hour light/dark cycle, lights on at 6:00 am and off at 6:00 pm. Two days later (Day-3) all rats were shaved in the nuchal area and baseline color photographs of the nuchal area were taken (light halothane anesthesia was utilized to facilitate the shaving). Three days later (Day 0) experimental compounds were made up at 12 mM concentrations in vehicle (i.e., saline:PEG400:EtOH (5:4:1), pH 7.4). Animals were injected subcutaneously in the nuchal area with the various stock solutions at a dose of 400 μl per 100 grams body weight. Typical injection volumes, therefore, range from 1 to 1.5 ml per animal. Animals were injected using a modified Z-track technique to try and minimize outflow of injected compounds due to the high volume utilized. Each animal was weighed prior to injection and all injections were accomplished in an approximately two-hour period. No anesthesia was utilized for injections.
Animals subsequently underwent daily weighing with a Mettler 6 second integrating balance and had ad lib access to tap water and purina rat chow. At various intervals after injections, the nuchal area of rats was again photographed. […] The scale used was 0 for no lesions, 5 for the worst lesions with breakdown of the skin and open flow of exudates. Grades in-between were estimated by the operator based on the size and severity of the lesion. […] After 8 days, final photographs were taken and all animals were euthanized, marking the end of the experiment.
Means of body weights for each group were calculated and plotted over time (FIG. 9A), as were numerical means of the lesion severity index (FIG. 9B). In FIGS. 9A and 9B, C=noninjected control, V=vehicle injected control, A=Co-MP, E=Cpd. No. (1-6) and F=Cpd. No. (4-4). […] Cpd.

[5] = Oxygen consumption catalyzed by Co-P in the presence of ascorbate/TMPD (Clark oxygen electrode); conditions: 2 mM ascorbate, 40 μM TMPD
Protocol: (Co-MP). Such activity can be readily determined by, for example, the assay disclosed in Example 16. In that assay, redox activity is measured by oxygen consumption catalyzed by a Co-P test compound in the presence of ascorbate and TMPD.
Ten mM stock solutions of a Co-P of this invention (i.e., test compound) were prepared using ethanol as solvent. KCl media consists of 125 mM KCl, 2 mM K2HPO4, 20 mM HEPES, pH 7.0. Oxygen consumption measurements were carried out using a Clark type oxygen electrode (Rank Brothers Ltd., Cambridge, UK) and assay solutions were magnetically stirred during the course of the experiments. To 500 μl of assay solution (KCl media supplemented with 2 mM sodium ascorbate and 40 μM […] (TMPD)) is added 2 μl of a stock solution of test compound (40 μM final concentration) and the oxygen consumption rate is followed for 2-4 min. Subsequently, a 5 μl aliquot of a freshly made catalase solution (100 mg/ml solution in KCl media) is added to determine if H2O2 is generated via redox cycling of the test compound.
Initial rates are calculated from oxygen consumption slopes and rate of a solvent control is subtracted. […] An aliquot of a 10 mM stock solution of Co-MP (final concentration of 40 μM) was added to assay buffer containing 2 mM of ascorbate and 40 μM of TMPD. […] Addition of catalase results in conversion of H2O2 present in the assay solution to O2 and H2O.
Stock solutions of the test compound were at 10 mM. Aliquots of the stock solutions were added to 500 μl of assay buffer containing 2 mM of ascorbate and 40 μM of TMPD.
Representative Co-P compounds of this invention were prepared by the procedures disclosed above, and assayed by the procedure of Example 16 to measure oxygen consumption catalyzed by the test compound in the presence of ascorbate/TMPD. […] The above procedure was then repeated for other representative Co-P compounds of this invention, but utilizing different ligands and/or R groups.

cobalt mesoporphyrin [Co-MP]
generation of reactive oxygen species (DCFC-DA fluorescence) [1]: reactive oxygen species were induced
lesion severity [2]: greatest lesion severity
body weight regulating effect compared with Co-PP [3]: comparable biological profile
body weight response [4]: greatest body weight response
Relative Rate (oxygen consumption), effect of ligand ([5]; Table 1, Co-MP with L1 = L2 varied, 40 μM test compound, normalized to chloride salt of Co-MP = 1): 1 (assigned value)
Relative Rate (oxygen consumption), effect of ligand and R5 moiety ([5]; Table 2, 40 μM test compound, normalized to chloride salt of Co-MP = 1): 1 (assigned value)
Relative Rate (oxygen consumption), effect of ligand, R5 and A moiety ([5]; Table 3, 40 μM test compound, normalized to chloride salt of Co-MP = 1): 1 (assigned value)
Relative Rate (oxygen consumption), effect of ligand, R5, A and n moiety ([5]; Table 4, 40 μM test compound, normalized to chloride salt of Co-MP = 1): 1.0 (assigned
O2 consumption / redox cycling (in words) ([5]; cell free ascorbate/TMPD system): immediate depletion of dissolved O2; also recorded: triggers robust consumption of O2
